Our source for the EC50 values is patent US10604512B2, “3-(1H-indol-2-yl)-1H-indazoles and therapeutic uses thereof” (Samumed, LLC, priority 2015, dated 2020).

Common to all, as to assay type: cell-based
In experiment [1] the test system is Wnt activity (Sp5-Luc reporter, TCF/LEF binding sites) in SW480 colon carcinoma cells. The experiment in a line: Screening assay for Wnt activity: Sp5-Luc reporter gene assay in stably transduced SW480 colon carcinoma cells. The settings on record: Homo sapiens, overnight incubation, 10-point curve from 10 μM. Put shortly: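 SW480 cells stably transduced with a luciferase reporter driven by an Sp5 promoter of eight TCF/LEF sites were plated at 4,000 cells/well in 1% FBS medium. They were exposed overnight at 37° C to a 10-point 1:3 dilution series from 10 μM (0.1% DMSO). Luminescence was normalized to DMSO for four-parameter EC50, or percent inhibition at 10 μM.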

Experiment [2] relates to IL-6. The experiment in a line: Inhibition of IL-6 in LPS-stimulated THP-1 human monocyte cells (HTRF). As to conditions: IL-6 inhibition, LPS-stimulated THP-1 cells, HTRF. In a few lines: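 THP-1 cells serum-reduced (1% FBS, 24 h), then 5000 cells/well preincubated 2 h with compound (10-point 1:3 series from 10 μM, 0.1% DMSO) before 500 ng/mL LPS for 22 h at 37 °C. Secreted IL-6 quantified by HTRF 665/620 ratio; DMSO-normalised duplicates fitted to four-parameter EC50; above 10 μM, % inhibition at 10 μM given.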

Experiment [3] relates to Primary human fibroblasts derived from IPF patients (LL29 cells) treated with TGF-β1. Put plainly: Inhibition of the fibrotic process: αSMA staining in TGF-β1-treated primary human fibroblasts from IPF patients (LL29 cells). The settings on record: Fibroblast, 96 h, % αSMA-positive LL29 cells, TGF-β1 20 ng/mL, 4 days. In a few lines: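 LL29 IPF-patient fibroblasts in 1% FBS stimulated with TGF-β1 (20 ng/mL) and compound (10 μM–1.87 nM, 0.1% DMSO) for 4 days at 37 °C. SYTOX-positive cells excluded; % αSMA-positive cells imaged, normalized to TGF-β1/DMSO wells; EC50 by nonlinear regression, else % inhibition at 10 μM.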

Experiment [4] concerns SW480 colon cancer cells. The experiment in a line: Cell viability assay (CellTiter-Blue) in SW480 colon cancer cells. The settings on record: Homo sapiens, 96 h, four days, CellTiter-Blue. In a few lines:
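Approximately 2×10^3 SW480 cells per well are seeded with compound (8 points, threefold steps, top 10 μM) and incubated four days at 37 °C. CellTiter-Blue is then added for about 3 h and fluorescence read. Non-linear regression gives EC50; for values beyond 10 μM, percent inhibition at that concentration is listed.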

As for `CC(C)(C)C(=O)Nc1cncc(-c2ccc3[nH]nc(-c4cc5c(-c6cccnc6)cccc5[nH]4)c3c2)c1` [Compound 92, N-(5-(3-(4-(Pyridin-3-yl)-1H-indol-2-yl)-1H-indazol-5-yl)pyridin-3-yl) pivalamide], the EC50 in experiment [1] came out at 140 nM; in experiment [2], 153 nM; in experiment [3], 612 nM; in experiment [4], 1320 nM.
For `CC(C)C(=O)Nc1cncc(-c2ccc3[nH]nc(-c4cc5c(-c6ccccc6F)cccc5[nH]4)c3c2)c1` [Compound 65, N-(5-(3-(4-(2-Fluorophenyl)-1H-indol-2-yl)-1H-indazol-5-yl)pyridin-3-yl) isobutyramide], in that order: 1160 nM, 105 nM, 305 nM and 981 nM.
In the same order, the values of `CS(=O)(=O)NCc1cc(F)cc(-c2cccc3[nH]c(-c4n[nH]c5ccc(-c6cncc(CN7CCCCC7)c6)cc45)cc23)c1` [Compound 491, N-(3-Fluoro-5-(2-(5-(5-(piperidin-1-ylmethyl)pyridin-3-yl)-1H-indazol-3-yl)-1H-indol-4-yl)benzyl)methanesulfonamide] are 540 nM, 5450 nM, 833 nM and 1490 nM.
In the same order, the values of `CN(C)CCNc1cc(F)cc(-c2cccc3[nH]c(-c4n[nH]c5ccc(-c6cncc(NC(=O)C7CCCCC7)c6)cc45)cc23)c1` [Compound 471, N-(5-(3-(4-(3-((2-(Dimethylamino)ethyl)amino)-5-fluorophenyl)-1H-indol-2-yl)-1H-indazol-5-yl)pyridin-3-yl)cyclohexanecarboxamide] are 689 nM, 731 nM, 1420 nM and 1380 nM.
For `CN(C)c1cncc(-c2ccc3[nH]nc(-c4cc5c(-c6ccoc6)cccc5[nH]4)c3c2)c1` [Compound 315, 5-(3-(4-(Furan-3-yl)-1H-indol-2-yl)-1H-indazol-5-yl)-N,N-dimethylpyridin-3-amine], the EC50 in experiment [1] worked out at 450 nM; in experiment [2] it was 200 nM; in experiment [3], 4270 nM; in experiment [4], 633 nM.
With `O=C(Nc1cncc(-c2ccc3[nH]nc(-c4cc5c(-c6ccc(F)cc6)cccc5[nH]4)c3c2)c1)C1CCC1` [Compound 49, N-(5-(3-(4-(4-Fluorophenyl)-1H-indol-2-yl)-1H-indazol-5-yl)pyridin-3-yl) cyclobutanecarboxamide], the EC50 came to 190 nM in experiment [1], 35 nM in experiment [2], 778 nM in experiment [3] and 2600 nM in experiment [4].
In the same order, the values of `COc1cncc(-c2ccc3[nH]nc(-c4cc5c(-c6ccsc6)cccc5[nH]4)c3c2)c1` [Compound 704, 5-(5-Methoxypyridin-3-yl)-3-(4-(thiophen-3-yl)-1H-indol-2-yl)-1H-indazole] are 565 nM, 245 nM, 31 nM and 1800 nM.
For `CC(C)Nc1cncc(-c2ccc3[nH]nc(-c4cc5c(N6CCN(C)CC6)cccc5[nH]4)c3c2)c1` [Compound 236, N-Isopropyl-5-(3-(4-(4-methylpiperazin-1-yl)-1H-indol-2-yl)-1H-indazol-5-yl)pyridin-3-amine], in that order: 352 nM, 253 nM, 761 nM and 677 nM.
On to `CS(=O)(=O)NCc1cc(F)cc(-c2cccc3[nH]c(-c4n[nH]c5ccc(-c6cncc(CN7CCC(F)(F)C7)c6)cc45)cc23)c1` [Compound 502, N-(3-(2-(5-(5-((3,3-Difluoropyrrolidin-1-yl)methyl)pyridin-3-yl)-1H-indazol-3-yl)-1H-indol-4-yl)-5-fluorobenzyl)methane sulfonamide], for which the EC50 in experiment [1] worked out at 475 nM; in experiment [2] it was 3140 nM; in experiment [3], 811 nM; in experiment [4], 3270 nM.
For `O=C(Nc1cncc(-c2ccc3[nH]nc(-c4cc5c(-c6ccccn6)cccc5[nH]4)c3c2)c1)C1CCCC1` [Compound 162, N-(5-(3-(4-(Pyridin-2-yl)-1H-indol-2-yl)-1H-indazol-5-yl)pyridin-3-yl) cyclopentanecarboxamide], in that order: 360 nM, 314 nM, 266 nM and 1740 nM.
With `CS(=O)(=O)NCc1cc(F)cc(-c2cccc3[nH]c(-c4n[nH]c5ccc(-c6cncc(OCc7ccccc7)c6)cc45)cc23)c1` [Compound 802, N-(3-(2-(5-(5-(Benzyloxy)pyridin-3-yl)-1H-indazol-3-yl)-1H-indol-4-yl)-5-fluorobenzyl)methanesulfonamide], the EC50 in experiment [1] came out at 189 nM; in experiment [2] it was 802 nM; in experiment [3], 400 nM; in experiment [4], 461 nM.
In the same order, the values of `CCNCc1cncc(-c2ccc3[nH]nc(-c4cc5c(-c6ccccn6)cccc5[nH]4)c3c2)c1` [Compound 146, N-((5-(3-(4-(Pyridin-2-yl)-1H-indol-2-yl)-1H-indazol-5-yl)pyridin-3-yl)methyl)ethanamine] are 525 nM, 529 nM, 1410 nM and 1000 nM.
For `Fc1cccc(-c2cccc3[nH]c(-c4n[nH]c5ccc(-c6cncc(CN7CCC(F)(F)C7)c6)cc45)cc23)c1` [Compound 26, 5-(5-((3,3-diFluoropyrrolidin-1-yl)methyl)pyridin-3-yl)-3-(4-(3-fluorophenyl)-1H-indol-2-yl)-1H-indazole], in that order: 495 nM, 1220 nM, 815 nM and 4090 nM.
For `CN(C)CCNc1cc(F)cc(-c2cccc3[nH]c(-c4n[nH]c5ccc(-c6cncc(NC(=O)C7CC7)c6)cc45)cc23)c1` [Compound 468, N-(5-(3-(4-(3-((2-(Dimethylamino)ethyl)amino)-5-fluorophenyl)-1H-indol-2-yl)-1H-indazol-5-yl)pyridin-3-yl)cyclopropanecarboxamide], in that order: 21 nM, 9 nM, 174 nM and 75 nM.
Regarding `c1cc(-c2ccoc2)c2cc(-c3n[nH]c4ccc(-c5cncc(CN6CCCCC6)c5)cc34)[nH]c2c1` [Compound 323, 3-(4-(Furan-3-yl)-1H-indol-2-yl)-5-(5-(piperidin-1-ylmethyl)pyridin-3-yl)-1H-indazole], the EC50 in experiment [1] was 185 nM; in experiment [2] it was 593 nM; in experiment [3], 728 nM; in experiment [4], 442 nM.
For `CN(C)CCNc1cc(F)cc(-c2cccc3[nH]c(-c4n[nH]c5ccc(-c6cncc(NC(=O)C7CCCC7)c6)cc45)cc23)c1` [Compound 470, N-(5-(3-(4-(3-((2-(Dimethylamino)ethyl)amino)-5-fluorophenyl)-1H-indol-2-yl)-1H-indazol-5-yl)pyridin-3-yl)cyclopentanecarboxamide], in that order: 40 nM, 54 nM, > 10000 nM and 166 nM.
`O=C(Nc1cncc(-c2ccc3[nH]nc(-c4cc5c(-c6cccs6)cccc5[nH]4)c3c2)c1)C1CCCC1` [Compound 358, N-(5-(3-(4-(Thiophen-2-yl)-1H-indol-2-yl)-1H-indazol-5-yl)pyridin-3-yl) cyclopentanecarboxamide]: the EC50 in experiment [1] amounted to 1230 nM; in experiment [2], 732 nM; in experiment [3], 21 nM; in experiment [4], 1100 nM.
For `Cc1ccncc1-c1ccc2[nH]nc(-c3cc4c(-c5cc(F)cc(CNS(C)(=O)=O)c5)cccc4[nH]3)c2c1` [Compound 481, N-(3-Fluoro-5-(2-(5-(4-methylpyridin-3-yl)-1H-indazol-3-yl)-1H-indol-4-yl)benzyl)methanesulfonamide], in that order: 105 nM, 122 nM, 156 nM and 891 nM.
In the same order, the values of `c1ccc(CNCc2cncc(-c3ccc4[nH]nc(-c5cc6c(-c7ccccn7)cccc6[nH]5)c4c3)c2)cc1` [Compound 164, N-Benzyl-1-(5-(3-(4-(pyridin-2-yl)-1H-indol-2-yl)-1H-indazol-5-yl)pyridin-3-yl)methanamine] are 564 nM, 214 nM, 191 nM and 2290 nM.
For `CCCCC(=O)Nc1cncc(-c2ccc3[nH]nc(-c4cc5c(N6CCN(C)CC6)cccc5[nH]4)c3c2)c1` [Compound 243, N-(5-(3-(4-(4-Methylpiperazin-1-yl)-1H-indol-2-yl)-1H-indazol-5-yl)pyridin-3-yl)pentanamide], in that order: 664 nM, 15 nM, 1270 nM and 1820 nM.
